In a melting point compilation (Tetko et al.; mined from patent text by program, amines drawn as free bases though some values may be those of a salt) one finds melting point data, which are given here for 88 compounds.

SMILES strings stand for the structures. A value given as a limit tells only on which side of the number the result lay.

The melting point is the temperature, or range, at which the solid turns liquid. `COC(=O)CCc1cc2nc(Cl)ccc2n1S(=O)(=O)c1ccc2ncsc2c1` registered a melting point of 146 °C. The compound `O=C(CN1C(=O)c2ccccc2C1=O)NNC(=O)c1ncn2c1[C@@H]1CCCN1C(=O)c1sccc1-2` displayed a melting point greater than 260 °C. In the case of `COc1ccc(CNc2nnc(-c3ccc(C(F)(F)F)cc3)cc2C(F)(F)F)cc1` it was 101 to 103 °C; in that of `COCCOc1cc(NS(=O)(=O)c2ccccn2)c2[nH]c(C3=NCC(CN4CCS(=O)CC4)S3)cc2c1` (stereo not drawn), 235 to 236 °C.

The compound `O=S(=O)(O)c1ccccc1Nc1ccnc2cc(Cl)ccc12` gave a melting point greater than 300 °C.

`Cc1ccc2c(c1)C(C(=O)Nc1c(C(C)C)cc(SC#N)cc1C(C)C)c1ccccc1CO2` (stereo not drawn) registered a melting point of 146 °C.

As to `Clc1ccc2c(c1)C(c1ccccc1Cl)=NCc1n[nH]cc1-2`, the melting point lay in the range of 142 to 144 °C. As for `COc1ccccc1N1CCN(C[C@@H](O)CN)CC1`, the figure is 76 to 80 °C. As for `CCCc1nc2c(N)nc3cc(-c4cccc(S(C)(=O)=O)c4)ccc3c2s1`, the figure is 242 to 245 °C; as for `COc1c(CO)n(C)c(=O)c2ccc(Cl)cc12`, 195 to 196 °C; as for `O=C1Cc2cc(C(=O)N3CCN(CCC(=O)c4ccccc4)CC3)ccc2N1`, 208 to 210 °C.

`NS(=O)(=O)Nc1cccc(-c2cccc(-c3nc(-c4ccc(C(F)(F)F)cc4)cc(C(F)(F)F)n3)c2)c1` gave a melting point of 174 °C. As for `CC(C)(C)S(=O)(=O)NC(=O)c1cccc([N+](=O)[O-])c1`, the figure is 220 °C.

Turning to `Cc1ccc(CNc2c3c(nc4ccccc24)CCCC3O)cc1` (stereo not drawn), the melting point was in the range of 176 to 178 °C. In the case of `CCOC(=O)Cc1nc(-c2ccccc2)oc1-c1ccsc1` it was 90 to 91 °C; in that of `CCCc1c(OCCCOc2ccc(-c3cc[nH]n3)c(OC)c2CCC)ccc2c1OC(C(=O)O)CC2` (stereo not drawn), 156 to 158 °C. As for `CCCCCCCCC(=S)n1c(-c2cscn2)nc2ccccc21`, the figure is 58 to 59 °C; as for `Cn1cc(C(=S)NCc2ccc(Cl)cc2)c(=O)c2cc(I)ccc21`, 153 to 155 °C; as for `COc1ccccc1C(O)(c1ccc(C(C)C)cc1)C(C)C` (stereo not drawn), 85 to 86 °C. On to `COc1cccc2c(=O)n3nc(C(=O)n4ccnc4)cc3[nH]c12`, for which the melting point was 295 to 300 °C.

`CC(C)COc1cc(O)c2c(c1)OC(C)(C)CC2=O` yielded a melting point of 77 to 79 °C. In turn, `Cc1ccc(N2C(=O)C(O)=C(C(=O)c3ccc(C(C)C)cc3)C2c2ccc(Oc3ccccn3)cc2)nn1` (stereo not drawn) registered a melting point of 280 °C. As for `CCOC(=O)c1cc(NC(=O)C(N)Cc2ccccc2)c[nH]1` (stereo not drawn), the figure is 139 to 142 °C; as for `COc1ccc(C=C(C)c2cc(OC)sc2C)cc1`, 112 to 113 °C; as for `O=c1c2c(Cl)cc(Cl)cc2nc2n1CCCCC2`, 110 to 112 °C. For `Cc1ccc(C)n1-c1ccc2ccc3[nH]c(=O)c(=O)n(CC(=O)NCc4ccccc4)c3c2c1`, the melting point lay in the range of 243 to 244 °C.

`COc1ccccc1N1CCN(C(=O)Cc2ccccc2Br)CC1` registered a melting point of 95 to 97 °C. `Nc1nc2ccccc2c2c1ncn2CCCCNC(=O)c1ccnc2ccccc12` returned a melting point of 214 to 215 °C. In the case of `C=CCNc1c(C(=O)OCC)cnc2cn(C(C)(C)OC)nc12` it was 102 to 103 °C.

On to `CCOC(=O)Cn1c(=S)c2ccccc2n(Cc2ccc(Cl)c(Cl)c2)c1=O`, for which the melting point lay within 128 to 129 °C.

`Oc1cc(OCc2ccccc2)cc(OCc2ccccc2)c1C[C@H](O)[C@@H](O)c1ccccc1` displayed a melting point of 121 to 123 °C. As for `Cc1cc(-c2cc(C(F)(F)F)n3ncc(I)c3n2)ccc1C(F)(F)F`, the figure is 160 °C; as for `CCOC(=O)C1CN(c2cc3ccccc3c(=O)[nH]2)CCN1C` (stereo not drawn), 105 to 109 °C.

Compound `COc1ccc(Sc2ccc([N+](=O)[O-])cc2[N+](=O)[O-])c(N)c1` displayed a melting point of 169 to 172 °C. As for `C=CCC12CCC(c3ccccc31)c1ccccc12`, the figure is 42 to 43 °C; as for `COc1cc2c(cc1Nc1ncc(Cl)c(Nc3ccccc3-n3cccn3)n1)CCN(CC(=O)N(C)C)CC2`, 66 to 67 °C.

In turn, `CC(C)(C)OC(=O)N1CCC=C(Cc2c[nH]c3ccc(F)cc23)C1` gave a melting point of 78 to 80 °C. In the case of `O=C(CCCl)Nc1ccc2c(c1)C(=O)c1cc(NC(=O)CCCl)ccc1C2=O` it was 281 °C; in that of `O=C1Nc2ccccc2Sc2cc(C(F)(F)F)ccc21`, 216 to 217 °C; in that of `N#Cc1ccc(OCc2ccnnc2)cc1OC(C(=O)O)c1ccccc1Cl` (racemic), 203 to 205 °C. As for `COC(=O)c1cc(-c2ccc(Cl)cc2)[nH]c1Cl`, the figure is 228 to 232 °C; as for `COc1cccc(C(=O)C=Cc2cccc(O)c2)c1`, 74 to 77 °C; as for `CC(C)(C)NCP(=O)(O)O`, 295 °C. In the case of `CC(C)S(=O)(=O)c1cnc2c(c1)nc(CC(C)(C)C)n2CCN(C)C` it was 119 °C; in that of `COc1ccc2[nH]c(SCc3cc(N)c(Br)cn3)nc2c1`, 183 to 184 °C; in that of `Cc1ccc(N2C(=O)C(O)=C(C(=O)c3ccc(C(C)C)cc3)C2c2ccc(Cn3ccnn3)cc2)nn1` (stereo not drawn), 293 °C. In the case of `CCOC(=O)C(Cc1cn(C)c2c(Cl)cccc12)(NC=O)C(=O)OCC`, the melting point lay in the range of 83 to 87 °C. In the case of `Clc1ccc(-c2n[nH]c(-c3ccncc3)n2)cc1` it was 264 to 266 °C; in that of `NNC(=O)OCC1c2ccccc2-c2ccccc21`, 150 to 153 °C; in that of `O=c1c(OCC2CC2)cn(-c2cccc(C(F)(F)F)c2)nc1-c1ccnn1-c1ccccc1`, 72 to 78 °C. In the case of `CCOC(=O)c1c(N)sc(-c2ccc([N+](=O)[O-])cc2)c1C` it was 117 to 119 °C. In the case of `CCOc1cc(Oc2ccc(S(C)(=O)=O)nc2)cc2cc(C3=NCC(CC(=O)O)S3)[nH]c12` (stereo not drawn) it was 208 to 210 °C. In the case of `CCOC(=O)/C=C/c1ccc(OCCOC)cc1Oc1ncc(Cl)cc1Cl`, the melting point is 70.7 to 71.3 °C. In the case of `COc1ccc(-c2c(C(N)=O)n(C)c(=O)c3ncccc23)cc1` it was greater than 310 °C. `Cc1cccc(CCCCCCCCC(=O)O)c1` registered a melting point of 39 to 40 °C. In the case of `CCN(CC)CCNc1cccc2c1C(=O)c1c(NCCN(CC)CC)cccc1C2=O` it was 104 to 106 °C. In the case of `COc1ccc(CN(C)CCc2ccc(NC(=O)c3cccc4c(=O)c5c(OC)c(OC)c(OC)cc5[nH]c34)cc2)cc1OC` it was 158 °C; in that of `CCOc1cc2c(O)c(Br)cnc2nc1C`, 266 to 267 °C; in that of `CC(C)CNc1nc(-c2ccccc2)c(Br)n2ccnc12`, 138 °C. As for `CCC(=O)C1=C(O)CC(c2ccc3c(c2)CCC3)CC1=O` (stereo not drawn), the figure is 98 °C; as for `NC1Cc2ccc(-c3ccc(=O)[nH]n3)cc2C1` (stereo not drawn), 228 to 229 °C; as for `CC(c1ccc(Oc2ccc(N)cc2)cc1)(c1ccc(Oc2ccc(N)cc2)cc1)c1ccc(Oc2ccc(N)cc2)cc1`, 220 to 221 °C. In turn, `O=c1cc(-c2ccccc2SCc2ccccc2)[nH]c2ccc(Cl)cc12` registered a melting point of 198 to 202 °C. In the case of `CC(=O)Nc1ccc(C#Cc2ccc(OC3CN4CCC3CC4)nn2)cc1` (stereo not drawn) it was 170 to 175 °C; in that of `CCOC(=O)c1cn(CCNC(=O)OC(C)(C)C)c(Br)c1-c1cccc(F)c1`, 108 to 110 °C. In the case of `COc1cc(OC)cc(S(=O)(=O)c2ccc(N)cc2)c1` it was 128 to 130 °C; in that of `COc1ccc(OC(=O)CN2CCN(Cc3cc(OC)c(OC)c(OC)c3)CC2)cc1`, 94 to 97 °C.

On to `O=c1c(CCC(O)c2ccncc2)cc2cccnc2n1-c1cccc([N+](=O)[O-])c1` (stereo not drawn), for which the melting point fell in the range of 235 to 236 °C.

Regarding `O=C(Nc1cc(C(=O)NCCc2ccccc2)ccc1O)C(=O)Nc1cc(Cl)cc(Cl)c1O`, the melting point is 265 °C. As for `N#CC1c2ccccc2COc2ccccc21` (stereo not drawn), the figure is 65 to 66.5 °C; as for `CCCCCCCCCCCCc1ccc2nc3c(c(O)c2c1)CCCC3`, 225 to 226 °C.

The compound `CC(=O)c1ccc(NS(C)(=O)=O)c(Sc2ccc(F)cc2F)c1` registered a melting point of 114 to 117 °C. In the case of `COC(=O)CCC(=O)N(O)c1cccc(OCc2nc3ccccc3s2)c1` it was 123 to 125 °C.

`O=C(N[C@H](Cc1ccc(C(F)(F)F)cc1)[C@@H](O)c1ccc(Cl)nc1)c1ccc(F)c2ccccc12` (racemic) gave a melting point of 188 to 189 °C.

Compound `Cc1ncoc1C(O)c1ccccc1` (stereo not drawn) had a melting point of 79 to 81 °C. In the case of `CC(C)Oc1cc(-n2nc(C(C)(C)C)oc2=O)ccc1F` it was 72.5 to 74 °C; in that of `CC(C)(C)OC(=O)NC(C(=O)O)c1ccccc1O` (stereo not drawn), 125 °C. As for `CC(C)(C)CC(C)(C)n1scc(Br)c1=O`, the figure is 133 to 142 °C; as for `CNc1nc(-c2ccccc2)c(-c2nc3ccccc3c(=O)n2-c2ccc(C(C)=O)cc2)s1`, 239 to 240 °C; as for `Cn1c(CNCC(C)(C)O)cc2cc(NC(=O)c3ccc(OC[C@@H]4CCCO4)cc3F)ccc21`, 159 to 160 °C.

`Cc1cc(C)n2nc(S(=O)(=O)Cl)c(C#N)c2n1`: the melting point came to 138 °C. `CC1(C)CC(=O)c2cc(C#N)ccc2O1` yielded a melting point of 119 to 120 °C.

The compound `CN1CCC(C(=NNc2ccccc2)c2ccccc2F)CC1` displayed a melting point of 131 to 134 °C.

Take `CCOC(=O)C(=CNc1csnn1)C(=O)c1cc(F)c(Cl)nc1Cl`: the melting point lay in the range of 110 to 114 °C. Turning to `COC(=O)c1ccc2c(c1)C(=O)NC(C(Cl)(Cl)Cl)O2` (stereo not drawn), the melting point is 218 to 220 °C.

In turn, `CCCC(O)c1ccc(C(=O)O)cc1` (stereo not drawn) showed a melting point of 109 to 113 °C. The compound `CC(=O)Oc1ccc(-c2c(C)c3ccc(F)cc3oc2=O)c(OC(C)=O)c1` returned a melting point of 148 to 149 °C. In the case of `CCC1CCCCN(C(=O)C2Cc3ccccc3N2c2ccc(=O)n(C)n2)C1` (stereo not drawn) it was 90 to 95 °C.
